In brackets after ≈: the same amount, converted by molar mass. Where two headings read alike, the source gives them in different places.
Experiments:
[1] = Solubility in DMSO; format: physicochemical; settings: in 1 ml DMSO
Description: Nitazoxanide (NTZ), the compound of formula (II), is the generic name for 2-(acetolyloxy)-N-(5-nitro 2-thiazoly) benzamide, a compound first synthesized by Rossignol and Cavier in 1975. 2 mg of nitazoxanide can be dissolved in 1 ml DMSO. Nitazoxanide is easily absorbed orally.

[2] = test system: MDBKF5D2 cell monolayers; format: cell-based; settings: cattle
Description: The drug was incubated on the monolayers at 37°C and 8% CO2. At 24 hours (trial 1) and 48 hours (trial 2), MTS (Owen's solution) the PMS were added to each well at concentrations of 333 µg/ml and 25 µM respectively. The plate was returned to the incubator in the dark to develop for two hours. At two hours, 100 µl of each supernatant was transferred to a new microtiter plate and read in the ELISA reader at 490nm. Results were recorded and analyzed. Percent toxicity was calculated by subtracting the mean optical density (OD) of the drug supernatants from the mean optical density (OD) of the medium control supernatants (no drug), dividing by the OD of the medium control and multiplying by 100. (OD medium - OD drug)/(OD medium)x 100 [formula]

[3] = test system: C. parvum oocysts; assay: Intact C. parvum oocyst assay (Example III), immunofluorescence; format: cell-based, Cryptosporidium parvum; settings: for Parasite - Mean parasite count/field (12 fields analyzed) / %Inhib - Percent inhibitation of parasite infection: 48 hr.; for %Inhib - Percent inhibitation of parasite infection: listed as NTZ
Description: Each concentration of nitazoxanide and the media controls contained 0.025% DMSO as a constant. The experiment used a cell culture of MDBKF5D2 Cells grown in 7 mm chambers, and as Cryptosporidium parvum: GCH1 oocysts, 5 X 10^4 per well, and was conducted to compare paromomycin (positive control) against nitazoxanide (experimental drug). […] 5 x 104 C. parvum oocysts per well are incubated in the pre-mentioned concentrations of nitazoxanide at 37°C (8% CO2) on confluent MDBKF5D2 cell monolayers. The level of infection in each well was determined and computer analyzed by an immunofluorescence assay at 48 hours. […] (Medium control count - Drug test count)/(Medium control count)x 100 [formula] Conc. - µg/ml; Parasite - Mean parasite count/field (12 fields analyzed); %Inhib - Percent inhibitation of parasite infection; % Tox- Percent toxicity to cells by the drug.

[4] = test system: MDBKF5D2 cell monolayers; assay: Toxicity testing assay (Example III), MTS/PMS; format: cell-based; settings: cattle, 48 h
Description: 200µl of medium containing nitazoxanide solution at the pre-mentioned concentrations and the proper controls were introduced into two wells of a 96 well plate containing confluent MDBKFD2 cell monolayers and two wells without monolayers. […] The plate was returned to the incubator in the dark to develop for 2 hours. At 2 hours, 100 µl of each supernatant was transferred to a new microtiter plate and read in the ELISA reader at 490 nm. Results were recorded and analyzed. […] (OD medium - OD drug x 100)/(OD medium) [formula] […]

[5] = test system: RH strain of Toxoplasma gondii; assay: Toxoplasma gondii growth in MRC5 fibroblast cultures, ELISA; format: cell-based
[6] = test system: early mature (10-week/old) F. gigantica; assay: Experimentally infected rabbits, early mature flukes; format: in vivo, Fasciola gigantica
Description: Nitazoxanide was tested against immature and mature Fasciola gigantica in experimentally infected rabbits. Fasciola gigantica encysted metacercariae (EMC) were collected on cellophane sheet after 28-35 days from infection of L. calludi snails by Fasciola gigantica miracidium using the technique described by […] snails were exposed daily to artificial light, for 30 minutes, in clean dechlorinated tap water. The resulting encysted […]) were preserved at 4°C in a refrigerator for 5 to 8 days under the surface of water until they were used to infect experimental animals. Forty (40) Boscat rabbits, weighting 1.5 to 2 kg each, were included in the study and allocated to two treatment groups of 20 animals. […] Ten animals from Group 2 received 35 mg of nitazoxanide, morning and evening, for 7 consecutive days 10 weeks after their infection at the mature stage of the parasite. The 10 remaining animals in Group 2 were kept as untreated controls. All animals were fed with dry ration until the end of the experiment. Seven days after administration of the last dose of nitazoxanide, all rabbits from each group were sacrificed. The surface of the liver was examined for the presence of necrotic migrating furrows especially at the immature stage of the parasite cycle. These necrotic areas were examined using two surgical needles in order to extract the juvenile migrating flukes according to the technique described by El-Bahy. The livers were sliced in small pieces especially around the migrating furrows and macerated under a microscope in order to extract the existing flukes. The abdominal cavity and the visceral surfaces were washed with warm water. The water was then collected, sieved and examined for identification of juvenile flukes. All the collected parasites as well as parts of them were counted in both treated and untreated animal in both Groups 1 and 2. […] The efficacy of nitazoxanide was calculated by using the formula indicated below: % efficacy(a - b)/(a)x 100 [formula] Where: • a = the number of flukes recovered from feces in the control animals • b = the number of flukes recovered from feces in the treated animals.

[7] = test system: MRC5 fibroblasts; settings: human, 72 h
[8] = test system: S. mansoni; settings: posttreatment positive egg-counts; report by Abaza et al.; cited from earlier work
[9] = mean of 10 rabbits, 70 mg/day for 7 consecutive days

For `CC(=O)Oc1ccccc1C(=O)Nc1ncc([N+](=O)[O-])s1` [Nitazoxanide, 2-(acetolyloxy)-N-(5-nitro 2-thiazoly) benzamide], the “amount that can be dissolved” value [1] was 2 mg, the “Percent Toxicity” value ([2]; 24 h, 0.1 µg/ml) was 19.3% and the “Percent Toxicity” value ([2]; 24 h, 1 µg/ml) was 8.3%. The “Percent Toxicity” value ([2]; 24 h, 10 µg/ml) was 65.1%, the “Percent Toxicity” value ([2]; 24 h, 100 µg/ml) was 88.1% and the “Percent Toxicity” value ([2]; 48 h, 0.02 µg/ml) was 21.23%. For the same compound, the “Percent Toxicity” value ([2]; 48 h, 0.2 µg/ml) was 16.56%, the “Percent Toxicity” value ([2]; 48 h, 2 µg/ml) was 24.93% and the “Percent Toxicity” value ([2]; 48 h, 20 µg/ml) was 92.87%. For the same compound, the “Parasite - Mean parasite count/field (12 fields analyzed)” value (shortened to “Parasite - Mean parasite count/field”) ([3]; Conc 0.01 µg/ml, 0.025% DMSO) was 714.33, the “Parasite - Mean parasite count/field” value ([3]; Conc 0.1 µg/ml, 0.025% DMSO) was 643.42 and the “Parasite - Mean parasite count/field” value ([3]; Conc 1 µg/ml, 0.025% DMSO) was 39.67. The “%Inhib - Percent inhibitation of parasite infection” value ([3]; Conc 1 µg/ml, 0.025% DMSO) was 93.69%, the “Parasite - Mean parasite count/field” value ([3]; Conc 10 µg/ml, 0.025% DMSO) was 11.75 and the “%Inhib - Percent inhibitation of parasite infection” value ([3]; Conc 10 µg/ml, 0.025% DMSO) was 98.13%. For the same compound, the inhibition at 0.01 µg/mL ([3]; Cryptosporidium parvum, 48 h, Conc 0.01 µg/ml, 0.025% DMSO, read-out: %Inhib - Percent inhibitation of parasite infection) was at most 0%, the inhibition at 0.1 µg/mL ([3]; Cryptosporidium parvum, 48 h, Conc 0.1 µg/ml, 0.025% DMSO, read-out: %Inhib - Percent inhibitation of parasite infection) was at most 0% and the inhibition at 1 µg/mL ([3]; Cryptosporidium parvum, 48 h, Conc 1 µg/ml, 0.025% DMSO, read-out: %Inhib - Percent inhibitation of parasite infection) was 94%. For the same compound, the inhibition at 10 µg/mL ([3]; Cryptosporidium parvum, 48 h, Conc 10 µg/ml, 0.025% DMSO, read-out: %Inhib - Percent inhibitation of parasite infection) was 98%, the “lowest concentration giving more than 90% of inhibition” value ([3]; in vitro against Cryptosporidium parvum) was 1 µg/mL and the “%Tox - Percent toxicity to cells by the drug” value (from here on “%Tox - Percent toxicity”) ([4]; 0.01 µg/ml) was 10.12%. The Tox/OD ([4]; 0.01 µg/ml) was 1.617, the “%Tox - Percent toxicity” value ([4]; 0.1 µg/ml) was at most 0% and the Tox/OD ([4]; 0.1 µg/ml) was 1.878. For the same compound, the “%Tox - Percent toxicity” value ([4]; 1 µg/ml) was 10.09%, the Tox/OD ([4]; 1 µg/ml) was 1.618 and the “%Tox - Percent toxicity” value ([4]; 10 µg/ml) was 77.07%. For the same compound, the Tox/OD ([4]; 10 µg/ml) was “.413”, the “concentration with significant effect (inhibition)” value ([5]; 72 hours) was at least 0.6 mg/L and the “concentrations with complete inhibition of Toxoplasma growth” value ([5]; 72 hours) was at least 2.5 mg/L. For the same compound, the IC50 ([5]; Toxoplasma gondii, MRC5, 72 hours, estimated from regression analysis, read-out: 50% inhibitory concentration) was 1.2 µg/mL (≈ 3.91 µM), the “concentrations at which a marked inhibition of Toxoplasma growth could be observed” value ([5]; alteration of the parasitophorous vacuole, no marked alteration of the parasite itself) was “approximately 1.2 mg/L” and the “microscopic examination of the monolayer” value ([5]; concentration of 1.25 mg/L) was “induced cytopathic effect on the parasitized cells, with enlargement of the parasitophorous vacuole and reduction of the number of the intra-celular parasites”. For the same compound, the overall efficacy ([6]; 70 mg/day dose for 7 consecutive days) was “completely effective”, the “No. of flukes extracted from liver of Treated Rabbits” value ([6]; individual rabbits No. 1-10, 35 mg morning and evening for 7 consecutive days, 10 weeks after infection) was 0.0 and the Efficacy % ([6]; individual rabbits No. 1-10 versus untreated control, 35 mg morning and evening for 7 consecutive days) was 100%. The “Efficacy %, Mean (reduction)” value [6, 9] was 100%, the “No. of flukes extracted from liver of Treated Rabbits, Mean” value [6, 9] was 0.0 and the “concentrations with marked toxicity on the cell monolayer” value [7] was at least 2500 ng/mL. For the same compound, the efficacy in patients [8] was “not effective”.
